Reference: the METLIN SMRT retention time set (Domingo-Almenara et al. 2019)

Test: gradient 5% acetonitrile 3 min, to 50% in 2 min, to 85% in 15 min, held 3 min, 100 µL/min
Conditions: column: Zorbax Extend-C18 2.1 x 50 mm; eluents: water / acetonitrile, 0.1% formic acid
Outline: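 The system's dead and dwell volumes were 40 μL and 900 μL, with a Zorbax Extend-C18 column (2.1 × 50 mm, 1.8 μm) run at 100 μL/min in water and acetonitrile containing 0.1% formic acid each. Pure standards were analyzed in mixtures of ~100 molecules by HPLC–quadrupole time-of-flight mass spectrometry in positive and negative ionization mode. Retention time was assigned from computationally picked, manually inspected adduct peaks.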

SMILES | RP-LC retention time [s]
CC(C)CNC(=O)N1CCCC(c2nc(C(C)C)no2)CCNC(=O)CC1 (stereo not given) | 679
CCOc1ccc(NC(=O)CSc2nnc3c4cc(-c5ccc(C)c(C)c5)nn4ccn23)cc1 | 973
O=C(Nc1ccc(F)c(F)c1)C1CCN(c2ccc(=O)n(-c3ccc(F)cc3)n2)CC1 | 822
O=C(NCCc1csc(C2CCCN(C(=O)C3CCC3)C2)n1)C1CCC1 (stereo not given) | 719
Cc1ccsc1-c1nnc(CC(=O)N2CCN(C3CCCCC3)CC2)o1 | 616
O=C(NCCc1ccsc1)C(=O)NCC(F)(F)F | 756
O=c1n(Cc2ccccc2F)nc2ccc(S(=O)(=O)N3CCOCC3)cn12 | 788
COc1ccc(S(=O)(=O)Nc2cc(-c3cn4ccc(C)cc4n3)ccc2C)cc1C | 687
N#Cc1cccc(NC(=O)Cn2cccc2-c2nc(-c3ccc4c(c3)OCO4)no2)c1 | 924
O=C(c1cc(-c2ccco2)[nH]n1)N1CCN(c2ncccn2)CC1 | 640
O=C(NC(c1ccccc1)c1nnc(N2CCOCC2)o1)C1CCCCC1 (stereo not given) | 735
CC1CCN(C(=O)C2CCN(S(C)(=O)=O)c3cc(Cl)ccc3O2)CC1 (stereo not given) | 922
CC1Oc2ccccc2N(CC(=O)NC2CC2)C1=O (stereo not given) | 691
O=C(CCc1cc(Cl)no1)NCCc1noc(C2CC2)n1 | 693
COc1ccc2c(C)cc(C)nc2n1 | 595
COC(=O)c1cn(Cc2c(F)cccc2Cl)nc1S(=O)(=O)N(C)c1ccccc1 | 718
Cc1cnc(CC2CCN(S(=O)(=O)c3cn(C)cn3)C2)n1Cc1ccccc1 (stereo not given) | 590
C/C(=C\C(=O)Nc1ccccc1C(=O)O)c1ccc2ccccc2c1 | 1150
Cc1ccn2c(NC(=O)c3cccc(C(F)(F)F)c3)c(-c3ccc(F)cc3)nc2c1 | 752

More lines, now with the values ahead:

RP-LC retention time [s] | SMILES
698 | CCc1ccccc1NC(=O)C1CC(=O)N(c2ccc3c(c2)CCN3C(C)=O)C1 (stereo not given)
590 | CCN(CC)CCn1c(C)c(C)c2c1ncn1nc(-c3cccnc3)nc21
1020 | CC1CCN(S(=O)(=O)c2ccc3nn(Cc4ccc(F)cc4)c(=O)n3c2)CC1
649 | O=C(NCc1cccnc1)C1c2ccccc2C(=O)N(Cc2ccccc2)C12CCCC2 (stereo not given)
930 | O=C(NCCC1=CCCCC1)c1ccc2c(c1)NC(=O)C1CCCCN21 (stereo not given)
875 | Cc1nc(Nc2ccc(F)cn2)sc1C(=O)N1CCN(c2ccccc2)CC1
668 | CC(C)Cn1c(=O)c(N2CCN(C(=O)NCc3ccc(F)cc3)CC2)nc2ccncc21
1100 | Cc1ccc(-c2noc(C3CCCN3C(=O)CNC(=O)C(c3ccccc3)c3ccccc3)n2)cc1 (stereo not given)
576 | CC1=C(C(=O)Nc2ccc(C(=O)NCCCN3CCN(C4CCCCC4)CC3)cc2)SCCO1
715 | Cc1ccsc1CN1CC(Oc2ccc(-c3noc(-c4ccncc4)n3)cc2)C1
912 | Cc1nc(-c2ccncc2)nc2c1CCC(=O)N2CCC1=CCCCC1
651 | CCOC(=O)N1CCN(C(=O)c2sc(NS(=O)(=O)c3ccccc3)nc2C)CC1
1070 | Cc1cc(C(=O)OCc2cc(-c3ccc4c(c3)OCCO4)on2)c(C)o1
698 | c1ccc(OCc2nc(-c3ccc4c(c3)nnn4CCN3CCCCC3)no2)cc1
712 | CCc1ccc(NC(=O)c2c(C)oc3c2C2=NC(CC)CN2C=N3)cc1 (stereo not given)
743 | CCCN(C)c1nccn2c(=O)n(CC(=O)Nc3ccc(C)cc3Br)nc12
1030 | Cc1ccc(CNC(=O)C(C)Oc2cc(C(F)(F)F)c3c(C)nn(C)c3n2)cc1 (stereo not given)
570 | COCCn1c(C2CCN(C(=O)Cc3ccc(Cl)cc3)C2)nc2ccncc21 (stereo not given)
742 | Cc1ccc(-c2cc3c(=O)n(Cc4noc(CN5CCC(C)CC5)n4)ccn3n2)c(C)c1
715 | O=C(NCCc1ccccc1)N1CCC(c2noc(-c3cnccn3)n2)C1 (stereo not given)
1020 | CCN(CC)C(=O)c1cnc2nc(C)ccc2c1Nc1ccc(CC(=O)O)cc1
947 | COc1ccc(C(O)Cn2ccn3nc(-c4ccc(C)c(C)c4)cc3c2=O)cc1 (stereo not given)
562 | CCOC(=O)N1CCN(c2c(N3CCN(c4ccccn4)CC3)c(=O)c2=O)CC1
817 | COC(=O)c1ncn2c1C(=O)N(c1ccc(C(C)C)cc1)C(C)(C(=O)NC1CCCC1)C2 (stereo not given)
637 | CCOC(=O)c1cccc(NC(=O)N2CCN(C)c3ncccc32)c1
610 | CCc1nc(N)n(CC(=O)Nc2cccc(C)c2)c(=O)c1C
